What was measured:
[1] = tested on: voluntary home-cage alcohol drinking by Wistar rats; test: Home-cage two-bottle choice alcohol drinking, acute treatment; format: in vivo; details: each drug 3 mg/kg i.p. acute
Experimental: Animals: Male Wistar rats (Charles River Laboratories, INC) were used in these studies. Rat housing and testing was conducted at the University of North Carolina at Chapel Hill (UNC-CH) School of Medicine in a state-of-the-art rodent vivarium approved by the Association for Assessment and Accreditation of Laboratory Animal Care International (AAALAC). Rat health was monitored daily by study investigators and veterinarians in the Division of Comparative Medicine UNC. All experimental procedures were carried out in accordance with the NIH Guide to Care and Use of Laboratory Animals (Committee for the Update of the Guide for the Care and Use of Laboratory Animals, 2011) and institutional guidelines.
Rats were housed individually in standard Plexiglas cages with standard rodent food and water available ad libitum. Upon arrival from the vendor, rats were given 7 days to acclimate to the vivarium during which they were weighed and handled by an investigator each day to monitor general health and habituate them to human contact. Rats were then weighed each day within 1-h of experimental procedures to calculate drug dosages relative to body weight. […] The colony was maintained at […] on a 12-hour light/dark cycle, with the lights on from 10 AM-10 PM. All behavioral experiments were conducted during the light portion of the light cycle.
Home-cage alcohol drinking method. Oral alcohol and water intake were examined using a two-bottle choice protocol, which is standard in the field and commonly used in our laboratory. Male Wistar rats (n=12) were first adapted to drinking from a 50 ml conical tube fitted with a standard stainless-steel ball bearing sipper tube that limits spillage. Then, two bottles were place on the cage daily. One bottle contained an alcohol solution and the other contained water. Bottles containing fresh solutions were weighed daily before and after a 24 hr access period. After drug treatment, bottles were weighed after 1 hr and 24 hrs of access. Each week, rats had 4-5 days of sweetened alcohol and water available and the remaining days only water.
Briefly, rats were first exposed to alcohol (10% v/v)+sucrose (5% w/v). versus water in the two bottles. Then, over a period of 6-weeks, the concentrations of alcohol and sucrose were gradually adjusted to alcohol (8% v/v)+sucrose (2% w/v) to achieve intake of pharmacologically relevant doses of alcohol. Rats were maintained at this concentration for the duration of the experiment for both acute (3.1.a) and chronic (3.1.b) home-cage drinking studies. Use of sweetened alcohol solutions in preclinical research provides face validity to the binge-intoxication stage of alcohol addiction in humans where sweeteners are commonly added to alcohol.
Compound 1 treatment. After establishing baseline intake of sweetened alcohol and water, rats were habituated to i.p. injections. All rats (N=12) were administered 3 habituation injections of vehicle (10% w/v kolliphor in BCD (10%)) prior to the Compound 1 dose response curve and alcohol intake was measured. Then, the Compound 1 dose response curve was conducted with dose order randomized according to a modified Latin-Square design. Rats were given a minimum of 1-2 days between injections to ensure normal drinking was re-established in absence of drug administration. Each dose of Compound 1 (0-10 mg/kg) was administered via i.p. injection and rats were placed back in the home-cage for 1 hr prior to the return of sweetened alcohol and water. Alcohol intake was measured after 1-h and 24-hrs of access in grams by weighing the drinking bottles. Data were excluded from 1 rat that emptied both bottles fully each day without drinking the solutions; thus, results are presented for a final group of N=11 rats.
Efficacy comparisons to MPEP and Naltrexone. […]

[2] = tested on: cue-induced reinstatement of alcohol-seeking behavior in Wistar rats; details: earlier work of the authors; cited from earlier work
[3] = tested on: cocaine reinstatement in rats; test: Yohimbine-induced reinstatement of cocaine self-administration (Stage II); format: in vivo, Sprague-Dawley rats
Experimental: After completion of Stage I, the rats were re-trained with cocaine for one week to ensure stable baseline. And then the rats underwent a 6-day extinction training procedure in which only saline infusion occurred when active lever was pressed. Meanwhile, the rats were divided into 3 roughly even groups for pharmacological stressor-induced reinstatement—All rats received one injection of alpha-2 adrenergic antagonist yohimbine (2 mg/kg) and then placed into the training box immediately). Thirty min before yohimbine treatment, one group of rats received saline, another group received MTEP 3 mg/kg injection, and the 3rd group received Compound 1 at 3 mg/kg.
Yohimbine-induced reinstatement was re-tested two more times in the same rats 3 days and 6 days after the first test, under continuous extinction procedure (There were 2 more days of extinction training between the 1st and 2nd reinstatement test, and between the 2nd and 3rd reinstatement test). Using the 3×3 within subject design, each given animal goes through all three treatments (saline, MTEP and Compound 1) across the three rounds of test.
(§1) A one-way mixed-effects model (REML) of ANOVA followed by Dunnett's post hoc tests were used to analyze efficacy of Compound 1 and MTEP on cocaine self-administration in stages I (The repeated measure ANOVA was not totally applicable due to a few outlier data points, which are removed), and one-way mixed-effects model (REML) of ANOVA followed by Tukey's post hoc tests were used in Stage II. An effect was considered significant if P<0.05. Data were represented as the mean and standard error to the mean (s.e.m).
Statistical outliers which exceeded mean +/− (2× standard deviation) of the group were removed from the analysis. Also, for reinstatement, the extinction time was shortened (from 9 days plus extension as option to 6 days). In the present study, 3 rounds of reinstatement tests were performed, and we wished to maintain the reinstatement power, thus we cut extinction duration. Accordingly, we loosened the extinction criterion from 6 or less infusions to 9 or less infusions during the last extinction session. With this criterion, 17 out of 21 rats were eligible in drug test in Stage II.

[4] = tested on: oxycodone reinstatement in rats; test: Yohimbine-induced reinstatement of oxycodone self-administration; format: in vivo, Sprague-Dawley rats; details: yohimbine 2 mg/kg; P<0.001
Experimental: Evaluation of Compound 1 on Oxycodone Reinstatement. After completion of testing rats were re-trained with oxycodone for one week to ensure stable baseline. Rats then underwent a 6-day extinction where only saline infusion occurred when active lever was pressed. Meanwhile, the rats were divided into 3 groups: All rats received one injection of alpha-2 adrenergic antagonist yohimbine (2 mg/kg) with 0 min pretreatment (rats were placed into the training box immediately). Thirty minutes before yohimbine treatment, one group of rats received saline, another group received MTEP 3 mg/kg injection, and the 3rd group received Compound 1 (3 mg/kg). Yohimbine-induced reinstatement was re-tested two more times in the same rats 3 days and 6 days after the first test, under continuous extinction procedure.
as §1, with “Statistical Analysis. Prism 9.40 software package Version 9 was used for statistical analysis and graphing. The number of active lever responses were recorded during each session and compared between treatment groups. A one-way” for “A one-way”, “MTEP on oxycodone self-administration in” for “MTEP on cocaine self-administration in”, “mean (s.e.m). Statistical outliers which exceeded mean +/− (2× standard deviation) of the group were removed from the analysis.” for “mean (s.e.m).”

[5] = yohimbine 2 mg/kg after saline pretreatment

Row | SMILES | alcohol intake at the 24-hr measurement interval, comparison of equivalent doses [1] | alcohol drinking at 1-hr of access vs vehicle control, positive control comparison ([1]; N=11) | cue-induced reinstatement in rats [2] | cocaine reinstatement, Mean Diff., Last Day of Cocaine Retraining vs. Saline - Yohimbine 2 mg/kg [3, 5] | cocaine reinstatement, Mean Diff., Last Day of Extinction vs. Saline - Yohimbine 2 mg/kg [3, 5] | reinstatement of cocaine self-administration after extinction ([3]; yohimbine 2 mg/kg, P<0.001) | reinstatement of oxycodone self-administration relative to extinguished level [4]
1 | Cc1cccc(C#Cc2ccccc2)n1 [MPEP, reference compound] | only Compound 1 (3 mg/kg) maintained efficacy | significantly decreased alcohol drinking | blocks cue-induced reinstatement |  |  |  | 
2 | COC(=O)[C@@H]1[C@H]2C[C@H]3c4[nH]c5ccccc5c4CCN3C[C@@H]2CC[C@@H]1O [Yohimbine, yohimbine] |  |  |  | 6.294 | −14.53 | induced significant reinstatement | induced significant reinstatement
